Data set [1] has as its system HeLa cervical cancer cells. Nature of the data set: HeLa cell viability after treatment with analog (cell count, cell viability analyzer). The class given is cell-based, human. Particulars: for viability at 1 µM / viability at 10 µM: Homo sapiens, HeLa, 72 h, read-out: HeLa Cell viability after treatment with analog (% viability). On the procedure: Cell numbers were counted with a cell viability analyzer (Beckman-Coulter). The ratio of drug treated viable cell numbers to control vehicle (DMSO) treated viable cell numbers was defined as percentage viability. […] Compound nos.
The HeLa cells used in the experiments summarized by Table 5 were cultured in RPMI-1640 medium supplemented with 10% FBS, 4 mM glutamine, 1 mM sodium pyruvate, 100 IU/mL penicillin, 100 ug/mL streptomycin and 0.25 ug/mL amphotericin. The HeLa cells were plated in 24-well plates at a density of 20,000 cells in each well in 10% FBS RPMI-1640. […] Cell numbers were counted with a cell viability analyzer (Beckman-Coulter). […]

For data set [2], the system named is PC-3 prostate cancer cells. Briefly: In vitro cytotoxicity against PC-3 prostate cancer cells. The conditions noted are these: PC-3 cells; for IC50: five days. The class given is cell-based, human. The procedure: (§1) The half maximal inhibitory concentration (IC50) is a measure of the effectiveness of a substance in inhibiting a specific biological or biochemical function. It is commonly used as a measure of antagonist drug potency.
Cell cultures were maintained in 5% carbon dioxide at a temperature of 37° C. […] Cell numbers were counted with a cell viability analyzer (Beckman-Coulter). […] A preliminary dose response curve was prepared from the collected data by means well known to those of ordinary skill in the art.
(§2) The six different concentrations fell within a selected linear concentration range determined by reference to the preliminary dose response curve and efforts to estimate the concentration at which 50% of the cell growth would be inhibited. The selected six different concentrations were used to further fill out the dose response curve to pinpoint a more exact IC50 value.

Data set [3] deals with DU-145 prostate cancer cells. Nature of the data set: In vitro cytotoxicity against DU-145 prostate cancer cells. Particulars: DU-145 cells; for IC50: five days. Format: cell-based, human. The procedure:
as §1
Cell numbers were counted with a cell viability analyzer (Beckman-Coulter).
(§3) A preliminary dose response curve was prepared from the collected data by means well known to those of ordinary skill in the art.
as §2

Data set [4] concerns HeLa cervical cancer cells. Nature of the data set: In vitro cytotoxicity against HeLa cervical cancer cells. The class given is cell-based, human. Particulars: for IC50: three days. The procedure:
as §1
(§4) Cell numbers were counted with a cell viability analyzer (Beckman-Coulter). The ratio of drug treated viable cell numbers to vehicle treated viable cell numbers was defined as percentage viability.
as §3, §2

In data set [5] the test system is MCF-10A normal mammary epithelial cells. Briefly: Cytotoxicity towards non-cancerous MCF-10A cells (FIG. 9). The conditions noted are these: for cytotoxicity towards MCF-10A normal mammary epithelial cells (in words): 0.1 μM, and 0.01 μM. The class given is cell-based. On the procedure: The MCF-10A normal mammary epithelial cells were cultured in RPMI-1640 medium supplemented with 10% FBS, 4 mM glutamine, 1 mM sodium pyruvate, 100 IU/mL penicillin, 100 ug/mL streptomycin and 0.25 ug/mL amphotericin. The MCF-10A cells were plated in 24-well plates at a density of 20,000 each well in 10% FBS RPMI-1640 or DMED medium. […] Cell numbers were counted with a cell viability analyzer (Beckman-Coulter).

Data set [6] relates to PC-3 prostate cancer cell line. The conditions noted are these: cited from earlier work.
Data set [7] concerns MDA-MB-231 breast cancer cells. Briefly: In vitro cytotoxicity toward MDA-MB-231 cells. Particulars: Homo sapiens, 120 h, five days, read-out: IC50 (analog). The class given is cell-based.
From the text: as §4

Data set [8] relates to A549 non-small cell lung cancer cells. Nature of the data set: In vitro cytotoxicity toward A549 cells. Format: cell-based. The conditions noted are these: Homo sapiens, 120 h, between three and five days, read-out: IC50 (analog).
From the text: as §4

Where [9] appears, read: 1 μM, three days, relative to DMSO vehicle.
The mark [10] stands for this setting: 10 μM, three days, relative to DMSO vehicle.

Molecules are shown by their SMILES.

`Cc1cc(/C=C2\CCC/C(=C\c3cc(C)on3)C2=O)no1` [Compound 8, (2E,6E)-2,6-Bis((5-methylisoxazol-3-yl)methylene)cyclohexanone]: in [1] (10 µM), the “HeLa Cell viability after treatment with analog (% viability)” value came to 12.8%. Further, the concentration for half-maximal inhibition (IC50) in [2] is 140 nM; in data set [3] it was 34 nM; in data set [4], 205 nM.
In the case of `CC(C)Cn1ccnc1/C=C/C(=O)/C=C/c1nccn1CC(C)C` [Compound 22], the “HeLa Cell viability after treatment with analog (% viability)” value is recorded as 34.1% in [1] (setting [9]) and 23.1% in data set [1] (setting [10]). Further, the 50% inhibitory concentration (IC50) in data set [2] is 46 nM; in data set [3], 57 nM; in data set [4], 430 nM. Also, the “IC50 (curcumin)/IC50 (analog)” value in data set [4] was determined as 24. Besides, the “survival of MCF-10A cells” value is listed as 100% in data set [5] (0.01 μM, five days, FIG. 9); “about 85%” in data set [5] (0.1 μM, five days, FIG. 9); “about 85%” in data set [5] (1 μM, five days, FIG. 9). Also, in [5] (1 μM, FIG. 9), the “cytotoxicity towards MCF-10A normal mammary epithelial cells (in words)” value is given as “no apparent cytotoxicity”.
Take `COc1cc(/C=C/C(=O)/C=C/c2ccc(O)c(OC)c2)ccc1O` [FLLL11]: the “potency towards PC-3 prostate cancer cell line relative to curcumin” value in data set [6] is “more potent than curcumin”.
`Cc1cc(/C=C/C(=O)/C=C/c2cc(C)no2)on1` [Compound 28, (1E,4E)-1,5-Bis(3-methylisoxazol-5-yl)penta-1,4-dien-3-one] came in with a melting point of 167 to 169 °C. Moreover, the viability at 1 µM in data set [1] is 28%. The compound further showed an IC50 in [2] of 41 nM. In data set [3], this compound came in with an IC50 of 16 nM. In data set [4], the half-maximal inhibitory concentration (IC50) was found to be 226 nM. The IC50 in [7] worked out at 156 nM. Besides, the IC50 in [8] stood at 160 nM. For the same compound, in data set [5] (0.01 μM, five days, FIG. 9), the “survival of MCF-10A cells” value is “about 90%”. The “survival of MCF-10A cells” value in data set [5] (0.1 μM, five days, FIG. 9) was “about 90%”. In data set [5] (1 μM, five days, FIG. 9), the “survival of MCF-10A cells” value is recorded as “about 85%”.
As to `CCC(C)n1ccnc1/C=C/C(=O)/C=C/c1nccn1C(C)CC` (stereo not drawn) [Compound 21], the “HeLa Cell viability after treatment with analog (% viability)” value in [1] (setting [9]) was 81.8%; in data set [1] (setting [10]), 17.7%. Besides, the IC50 was found to be 63 nM in data set [2], 35 nM in data set [3] and 654 nM in [4]. For the same compound, the “IC50 (curcumin)/IC50 (analog)” value in [4] is 16. Further, the “survival of MCF-10A cells” value in data set [5] (0.01 μM, five days, FIG. 9) is on record as 100%; in data set [5] (0.1 μM, five days, FIG. 9), “about 90%”; in data set [5] (1 μM, five days, FIG. 9) it was “about 80%”. Moreover, the “cytotoxicity towards MCF-10A normal mammary epithelial cells (in words)” value in data set [5] (1 μM, FIG. 9) is “no apparent cytotoxicity”.
Take `COc1cc(/C=C/C(=O)/C=C/c2cc(OC)c(O)c(OC)c2)cc(OC)c1O` [FLLL12]: the “potency towards PC-3 prostate cancer cell line relative to curcumin” value in data set [6] was “more potent than curcumin”.
In the case of `COc1cc(/C=C/C(=O)CC(=O)/C=C/c2ccc(O)c(OC)c2)ccc1O` [curcumin, reference compound], in data set [1], the viability at 1 µM came out at 100%. Besides, in data set [1], the viability at 10 µM was 42.5%. The IC50 in [2] (Homo sapiens, PC-3, 120 h) turned out to be 1980 nM; in data set [3] (Homo sapiens, DU-145, 120 h) it was 300 nM; in data set [4] (Homo sapiens, HeLa, 72 h) it was 10500 nM; in [7] it was 880 nM; in data set [8], 15000 nM. Besides, the “survival of MCF-10A cells” value in data set [5] (human, 5 days, 0.01 µM) is listed as 100%; in data set [5] (human, 5 days, 0.1 µM), “about 95%”; in data set [5] (human, 5 days, 1 µM) it was “about 95%”.
Take `CN1CC(=Cc2cscn2)C(=O)C(=Cc2cscn2)C1` [Compound 6]: the “HeLa Cell viability after treatment with analog (% viability)” value in [1] (setting [9]) was 72.0%; in data set [1] (setting [10]), 12.0%. The “IC50 (curcumin)/IC50 (analog)” value in data set [2] was 2.5; in data set [3] it was 0.7; in data set [4], 13. Besides, the half-inhibitory concentration (IC50) was 800 nM in data set [2], 430 nM in data set [3] and 817 nM in [4].
Consider `Cc1cc(/C=C/C(=O)/C=C/c2cc(C)on2)no1` [Compound 27], for which the “HeLa Cell viability after treatment with analog (% viability)” value amounted to 48% in data set [1] (setting [9]) and 15.9% in data set [1] (setting [10]). For the same compound, in data set [2], the “IC50 (curcumin)/IC50 (analog)” value was determined as 7.9. The values for the half-maximal inhibitory concentration (IC50) in data set [2], in data set [3] and in data set [4] were 250 nM, 42 nM and 296 nM, respectively.
As to `CC(C)n1ccnc1/C=C/C(=O)/C=C/c1nccn1C(C)C` [Compound 20], the “HeLa Cell viability after treatment with analog (% viability)” value in [1] (setting [9]) is listed as 35%; in [1] (setting [10]), 11.4%. Also, the IC50 came to 89 nM in [2], 54 nM in data set [3] and 418 nM in data set [4]. For the same compound, in [4], the “IC50 (curcumin)/IC50 (analog)” value was found to be 25.
On to `Cc1cc(/C=C2\CCC/C(=C\c3cc(C)on3)C2=O)no1` [Compound 18, (2E,6E)-2,6-Bis((5-methylisoxazol-3-yl)methylene)cyclohexanone], for which, in [1], the viability at 1 µM was 32% and the viability at 10 µM was found to be 15.9%. Also, in data set [2], the IC50 is 71 nM. The compound also had an IC50 in [3] of 70 nM. Besides, in data set [4], the “IC50 (curcumin)/IC50 (analog)” value was found to be 19 and the IC50 is 552 nM.

The term IC50 denotes the midpoint of a concentration-inhibition curve. In general, viability refers to the share of living cells, or the viability signal relative to a control. The term melting point denotes the temperature of the solid-liquid transition.

These data come from patent publication US9499529B2 (California State University Fresno, priority 2013, dated 2016).
